Test results: PubChem BioAssay AID248 (DTP/NCI, 2004)
Where “and” joins values, the source holds several entries; their conditions need not be identical. Identical values can stand only once. Toxic doses and inconclusive results are not listed.

Tested on: L1210 leukemia ip in BDF1 mice, survival T/C
Test: NCI In Vivo Anticancer Drug Screen. Data for tumor model L1210 Leukemia (intraperitoneal) in B6D2F1 (BDF1) mice
Conditions: higher = longer survival
Summary of the method: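 Ratio derived from survival: compound-dosed mice over vehicle-dosed mice, all bearing a transplantable tumor.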

[1] = endpoint: mean survival time, dose: 100.0 mg/kg/injection, schedule: Q04DX003 (ip), vehicle: saline with Tween-80
[2] = endpoint: mean survival time, dose: 200.0 mg/kg/injection, schedule: Q04DX003 (ip), vehicle: saline with Tween-80
[3] = endpoint: mean survival time, dose: 400.0 mg/kg/injection, schedule: Q04DX003 (ip), vehicle: saline with Tween-80
[4] = endpoint: mean survival time, dose: 100.0 mg/kg/injection, schedule: Q04DX002 (ip), vehicle: Klucel (hydroxypropylcellulose) (HPC)
[5] = endpoint: mean survival time, dose: 200.0 mg/kg/injection, schedule: Q04DX002 (ip), vehicle: Klucel (hydroxypropylcellulose) (HPC)
[6] = endpoint: mean survival time, dose: 100.0 mg/kg/injection, schedule: Q01DX001 (ip), vehicle: carboxymethylcellulose (CMC)
[7] = endpoint: mean survival time, dose: 200.0 mg/kg/injection, schedule: Q01DX001 (ip), vehicle: carboxymethylcellulose (CMC)
[8] = endpoint: mean survival time, dose: 400.0 mg/kg/injection, schedule: Q01DX001 (ip), vehicle: carboxymethylcellulose (CMC)
[9] = endpoint: mean survival time, dose: 400.0 mg/kg/injection, schedule: Q04DX002 (ip), vehicle: Klucel (hydroxypropylcellulose) (HPC)
[10] = endpoint: mean survival time, dose: 20.0 mg/kg/injection, schedule: Q01DX001 (ip), vehicle: Klucel (hydroxypropylcellulose) (HPC)
[11] = endpoint: mean survival time, dose: 100.0 mg/kg/injection, schedule: Q01DX009 (ip), vehicle: saline
[12] = endpoint: mean survival time, dose: 100.0 mg/kg/injection, schedule: Q04DX003 (ip), vehicle: Klucel (hydroxypropylcellulose) (HPC)
[13] = endpoint: mean survival time, dose: 200.0 mg/kg/injection, schedule: Q01DX009 (ip), vehicle: saline
[14] = endpoint: mean survival time, dose: 200.0 mg/kg/injection, schedule: Q04DX003 (ip), vehicle: Klucel (hydroxypropylcellulose) (HPC)
[15] = endpoint: mean survival time, dose: 400.0 mg/kg/injection, schedule: Q04DX003 (ip), vehicle: Klucel (hydroxypropylcellulose) (HPC)
[16] = endpoint: mean survival time, dose: 100.0 mg/kg/injection, schedule: Q01DX001 (ip), vehicle: Klucel (hydroxypropylcellulose) (HPC)

In the case of CCCN(CCC)C(=O)C1C2C=CC(C2)C1C(=O)N(CCC)CCC (stereo not drawn), the T/C [1] is reported as 98 % of control, the T/C [2] is reported as 111 % of control and the T/C [3] is reported as 98 % of control.
With N=C(N)SCC(=O)c1ccc([N+](=O)[O-])cc1 the T/C (endpoint: mean survival time, dose: 100.0 mg/kg/injection, schedule: Q04DX002 (ip), vehicle: saline with Tween-80) was 88 % of control and the T/C (endpoint: mean survival time, dose: 200.0 mg/kg/injection, schedule: Q04DX002 (ip), vehicle: saline with Tween-80) was 95 % of control.
For COC1OC(CI)C(OS(C)(=O)=O)C(OC(=O)c2ccccc2)C1OC(=O)c1ccccc1 (stereo not drawn), the T/C [4] was 91 % of control and the T/C [5] was 97 % of control.
With O=C1c2ccccc2CC1(c1ccccc1)c1ccccc1 the T/C [6] was 91 % of control, the T/C [7] was 94 % of control and the T/C [8] was 94 % of control.
With CSc1nc(N)c(N=Nc2ccc(S(=O)(=O)Nc3nccs3)cc2)c(=O)[nH]1 the T/C [6] was 92 % of control, the T/C [7] was 92 % of control and the T/C [8] was 92 % of control.
For O=S(c1ccccc1)c1ccccc1, the T/C (endpoint: mean survival time, dose: 75.0 mg/kg/injection, schedule: Q01DX009 (ip), vehicle: Klucel (hydroxypropylcellulose) (HPC)) was 98 % of control, the T/C [4] was 102 % of control and the T/C (endpoint: mean survival time, dose: 150.0 mg/kg/injection, schedule: Q01DX009 (ip), vehicle: Klucel (hydroxypropylcellulose) (HPC)) was 102 % of control. The T/C [5] was 98 % of control, the T/C (endpoint: mean survival time, dose: 300.0 mg/kg/injection, schedule: Q01DX009 (ip), vehicle: Klucel (hydroxypropylcellulose) (HPC)) was 95 % of control and the T/C [9] was 112 % of control.
In the case of CCN(CC)CCCC(C)Nc1cc(OC)cc2cccnc12 (stereo not drawn), the T/C (endpoint: mean survival time, dose: 10.0 mg/kg/injection, schedule: Q01DX009 (ip), vehicle: Klucel (hydroxypropylcellulose) (HPC)) is reported as 93 % of control, the T/C [10] is reported as 100 % of control and the T/C (endpoint: mean survival time, dose: 20.0 mg/kg/injection, schedule: Q01DX009 (ip), vehicle: Klucel (hydroxypropylcellulose) (HPC)) is reported as 96 % of control. For the same molecule, the T/C (endpoint: mean survival time, dose: 40.0 mg/kg/injection, schedule: Q01DX001 (ip), vehicle: Klucel (hydroxypropylcellulose) (HPC)) was 100 % of control and the T/C (endpoint: mean survival time, dose: 40.0 mg/kg/injection, schedule: Q01DX009 (ip), vehicle: Klucel (hydroxypropylcellulose) (HPC)) was 96 % of control.
For COc1cccc(C(c2ccccc2)C(CC(=O)O)CC(=O)O)c1 (stereo not drawn), the T/C (endpoint: mean survival time, dose: 75.0 mg/kg/injection, schedule: Q04DX002 (ip), vehicle: Klucel (hydroxypropylcellulose) (HPC)) was 101 % of control, the T/C (endpoint: mean survival time, dose: 150.0 mg/kg/injection, schedule: Q04DX002 (ip), vehicle: Klucel (hydroxypropylcellulose) (HPC)) was 108 % of control and the T/C (endpoint: mean survival time, dose: 300.0 mg/kg/injection, schedule: Q04DX002 (ip), vehicle: Klucel (hydroxypropylcellulose) (HPC)) was 97 % of control.
For CN(C)C1C(=O)C(C(N)=O)=C(O)C2(O)C(=O)C3=C(O)c4c(O)cccc4C(C)(O)C3CC12 (stereo not drawn), the T/C (endpoint: mean survival time, dose: 100.0 mg/kg/injection, schedule: Q01DX001 (ip), vehicle: saline) was 94 % of control, the T/C (endpoint: mean survival time, dose: 200.0 mg/kg/injection, schedule: Q01DX001 (ip), vehicle: saline) was 96 % of control and the T/C (endpoint: mean survival time, dose: 400.0 mg/kg/injection, schedule: Q01DX001 (ip), vehicle: saline) was 100 % of control. The T/C (endpoint: median survival time, dose: 20.0 mg/kg/injection, schedule: Q04DX003 (ip), vehicle: water) was 103 % of control and 105 % of control, the T/C (endpoint: median survival time, dose: 40.0 mg/kg/injection, schedule: Q04DX003 (ip), vehicle: water) was 97 % of control and 100 % of control and the T/C (endpoint: median survival time, dose: 80.0 mg/kg/injection, schedule: Q04DX003 (ip), vehicle: water) was 97 % of control and 100 % of control. The T/C (endpoint: median survival time, dose: 160.0 mg/kg/injection, schedule: Q04DX003 (ip), vehicle: water) was 105 % of control and 111 % of control.
In the case of O=c1[nH]c2c(Br)c([N+](=O)[O-])c(Br)cc2c2ccc(Br)cc12, the T/C [6] is reported as 100 % of control, the T/C [7] is reported as 98 % of control and the T/C [8] is reported as 91 % of control.
CCOC(=O)C(=CNc1cc(NC(C)=O)nc(SC)n1)C(=O)OCC was tested, and the T/C [4] was 96 % of control, the T/C [5] was 103 % of control and the T/C [9] was 96 % of control.
CCOC(=O)N1C(=O)C2C3CCC(O3)C2C1=O (stereo not drawn) was tested, and the T/C (endpoint: mean survival time, dose: 25.0 mg/kg/injection, schedule: Q01DX009 (ip), vehicle: saline with Tween-80) was 107 % of control and the T/C (endpoint: mean survival time, dose: 50.0 mg/kg/injection, schedule: Q01DX009 (ip), vehicle: saline with Tween-80) was 110 % of control.
c1ccc2[nH]c(-c3ccc(N=Nc4ccc(-c5nc6ccccc6[nH]5)cc4)cc3)nc2c1 was tested, and the T/C (endpoint: mean survival time, dose: 15.0 mg/kg/injection, schedule: Q01DX Z (ip), vehicle: other) was 100 % of control, the T/C (endpoint: mean survival time, dose: 30.0 mg/kg/injection, schedule: Q01DX Z (ip), vehicle: other) was 97 % of control and the T/C (endpoint: mean survival time, dose: 60.0 mg/kg/injection, schedule: Q01DX Z (ip), vehicle: other) was 105 % of control. For the same molecule, the T/C (endpoint: mean survival time, dose: 120.0 mg/kg/injection, schedule: Q01DX Z (ip), vehicle: other) was 96 % of control, the T/C (endpoint: mean survival time, dose: 180.0 mg/kg/injection, schedule: Q01DX Z (ip), vehicle: carboxymethylcellulose (CMC)) was 108 % of control and the T/C (endpoint: mean survival time, dose: 270.0 mg/kg/injection, schedule: Q01DX Z (ip), vehicle: carboxymethylcellulose (CMC)) was 101 % of control.
OC(c1cc2c3c(c1)CCCN3CCC2)(C(F)(F)F)C(F)(F)F was tested, and the T/C [1] was 92 % of control and the T/C [2] was 96 % of control.
With C(=N/OC(c1ccccc1)(c1ccccc1)c1ccccc1)/c1ccccc1 the T/C (endpoint: mean survival time, dose: 50.0 mg/kg/injection, schedule: Q01DX009 (ip), vehicle: saline) was 98 % of control, the T/C (endpoint: mean survival time, dose: 75.0 mg/kg/injection, schedule: Q04DX003 (ip), vehicle: saline) was 92 % of control and the T/C [11] was 104 % of control. For the same molecule, the T/C [12] was 101 % of control, the T/C (endpoint: mean survival time, dose: 100.0 mg/kg/injection, schedule: Q04DX003 (ip), vehicle: saline) was 95 % of control and the T/C (endpoint: mean survival time, dose: 150.0 mg/kg/injection, schedule: Q04DX003 (ip), vehicle: saline) was 94 % of control. For the same molecule, the T/C [13] was 98 % of control, the T/C [14] was 103 % of control and the T/C (endpoint: mean survival time, dose: 200.0 mg/kg/injection, schedule: Q04DX003 (ip), vehicle: saline) was 95 % of control. The T/C (endpoint: mean survival time, dose: 300.0 mg/kg/injection, schedule: Q04DX003 (ip), vehicle: saline) was 89 % of control, the T/C [15] was 101 % of control and the T/C (endpoint: mean survival time, dose: 400.0 mg/kg/injection, schedule: Q04DX003 (ip), vehicle: saline) was 95 % of control.
With CC1C(N2CCCCC2)CS1(=O)=O (stereo not drawn) the T/C (endpoint: mean survival time, dose: 100.0 mg/kg/injection, schedule: Q04DX002 (ip), vehicle: saline) was 121 % of control.
For Clc1c(Cl)c(Cl)c2n[nH]nc2c1Cl, the T/C (endpoint: mean survival time, dose: 75.0 mg/kg/injection, schedule: Q01DX001 (ip), vehicle: saline) was 96 % of control.
With COC(=O)C1CCC(NC(=O)N(CCCl)N=O)CC1 (stereo not drawn) the T/C (endpoint: mean survival time, dose: 13.0 mg/kg/injection, schedule: Q01DX001 (ip), vehicle: Klucel (hydroxypropylcellulose) (HPC)) was 212 % of control and 188 % of control, the T/C [10] was 270 % of control and 283 % of control and the T/C (endpoint: mean survival time, dose: 30.0 mg/kg/injection, schedule: Q01DX001 (ip), vehicle: Klucel (hydroxypropylcellulose) (HPC)) was 283 % of control. The T/C (endpoint: mean survival time, dose: 44.0 mg/kg/injection, schedule: Q01DX001 (ip), vehicle: Klucel (hydroxypropylcellulose) (HPC)) was 248 % of control and 282 % of control, the T/C (endpoint: mean survival time, dose: 67.0 mg/kg/injection, schedule: Q01DX001 (ip), vehicle: Klucel (hydroxypropylcellulose) (HPC)) was 266 % of control and the T/C [16] was 104 % of control.
In the case of Oc1ccc(O)c(CCCc2cc(O)ccc2O)c1, the T/C [1] is reported as 98 % of control, the T/C [2] is reported as 98 % of control and the T/C [3] is reported as 90 % of control.
In the case of C/C(=N/N(C)C)c1ccc(C#N)cc1, the T/C [16] is reported as 112 % of control, the T/C (endpoint: mean survival time, dose: 200.0 mg/kg/injection, schedule: Q01DX001 (ip), vehicle: Klucel (hydroxypropylcellulose) (HPC)) is reported as 113 % of control and the T/C (endpoint: mean survival time, dose: 400.0 mg/kg/injection, schedule: Q01DX001 (ip), vehicle: Klucel (hydroxypropylcellulose) (HPC)) is reported as 105 % of control.
For CN(C)CCC(=O)O, the T/C [11] was 92 % of control, the T/C (endpoint: mean survival time, dose: 100.0 mg/kg/injection, schedule: Q04DX003 (ip), vehicle: saline sonified) was 108 % of control and the T/C [13] was 97 % of control. For the same molecule, the T/C (endpoint: mean survival time, dose: 200.0 mg/kg/injection, schedule: Q04DX003 (ip), vehicle: saline sonified) was 105 % of control, the T/C (endpoint: mean survival time, dose: 400.0 mg/kg/injection, schedule: Q01DX009 (ip), vehicle: saline) was 94 % of control and the T/C (endpoint: mean survival time, dose: 400.0 mg/kg/injection, schedule: Q04DX003 (ip), vehicle: saline sonified) was 95 % of control.
CCOC(=O)/C=C(/C)OC(C)=O was tested, and the T/C (endpoint: mean survival time, dose: 100.0 mg/kg/injection, schedule: Q01DX009 (ip), vehicle: Klucel (hydroxypropylcellulose) (HPC)) was 100 % of control, the T/C [12] was 101 % of control and the T/C (endpoint: mean survival time, dose: 200.0 mg/kg/injection, schedule: Q01DX009 (ip), vehicle: Klucel (hydroxypropylcellulose) (HPC)) was 98 % of control. The T/C [14] was 95 % of control, the T/C (endpoint: mean survival time, dose: 400.0 mg/kg/injection, schedule: Q01DX009 (ip), vehicle: Klucel (hydroxypropylcellulose) (HPC)) was 100 % of control and the T/C [15] was 95 % of control.
